Measurements taken from PubChem BioAssay AID1963965 (Molecular Pharmacology Branch, DTP, NCI, 2024).

Tested on: 996289-038-R-J1-PDC spheroid viability
Experiment: Anticancer human tumor 996289-038-R-J1-PDC patient-derived colon adenocarcinoma cell line growth inhibition [PI3K]
Conditions: spheroids with HUVEC and MSC; for IC50: curve of first compound; for viability, T/C: stronger effect = lower value
Method in brief: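 Tumor cells grown as multi-cell spheroids with HUVEC endothelial cells and MSC fibroblast-like stroma were treated with targeted agents combined with inavolisib, alpelisib, duvelisib or copanlisib. Doses fell in half-log steps from near clinical Cmax, else from 10 microM. Viability was measured.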
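Note: spheroids exposed to compounds for seven days before viability read.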
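Throughout, for viability, T/C: luminescence used as a proxy for viable cell amount; percent viability relative to DMSO vehicle control as 100%.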

CNC(=O)c1ccc(N2C(=S)N(c3ccc(C#N)c(C(F)(F)F)c3)C(=O)C2(C)C)cc1F + CC(Nc1ncnc2nc[nH]c12)c1cc2cccc(Cl)c2c(=O)n1-c1ccccc1
IC50 (second compound 0.0316 µM): > 10000 nM | IC50 (second compound 0.1 µM): > 10000 nM | IC50 (second compound 0.316 µM): > 10000 nM | IC50 (second compound 1 µM): > 10000 nM | IC50 (second compound 3.16 µM): > 10000 nM | IC50 (second compound 10 µM): > 10000 nM | viability, T/C (second compound 0.0316 µM, first compound 0.0316 µM): 96.5% | viability, T/C (second compound 0.0316 µM, first compound 0.1 µM): 104% | viability, T/C (second compound 0.0316 µM, first compound 0.316 µM): 110% | viability, T/C (second compound 0.0316 µM, first compound 1 µM): 110% | viability, T/C (second compound 0.0316 µM, first compound 3.16 µM): 118% | viability, T/C (second compound 0.0316 µM, first compound 10 µM): 119% | viability, T/C (second compound 0.1 µM, first compound 0.0316 µM): 130% | viability, T/C (second compound 0.1 µM, first compound 0.1 µM): 98.4% | viability, T/C (second compound 0.1 µM, first compound 0.316 µM): 93.6% | viability, T/C (second compound 0.1 µM, first compound 1 µM): 88.6% | viability, T/C (second compound 0.1 µM, first compound 3.16 µM): 105% | viability, T/C (second compound 0.1 µM, first compound 10 µM): 108% | viability, T/C (second compound 0.316 µM, first compound 0.0316 µM): 107% | viability, T/C (second compound 0.316 µM, first compound 0.1 µM): 106% | viability, T/C (second compound 0.316 µM, first compound 0.316 µM): 102% | viability, T/C (second compound 0.316 µM, first compound 1 µM): 110% | viability, T/C (second compound 0.316 µM, first compound 3.16 µM): 119% | viability, T/C (second compound 0.316 µM, first compound 10 µM): 103% | viability, T/C (second compound 1 µM, first compound 0.0316 µM): 94.7% | viability, T/C (second compound 1 µM, first compound 0.1 µM): 112% | viability, T/C (second compound 1 µM, first compound 0.316 µM): 98.2% | viability, T/C (second compound 1 µM, first compound 1 µM): 102% | viability, T/C (second compound 1 µM, first compound 3.16 µM): 114% | viability, T/C (second compound 1 µM, first compound 10 µM): 96.9% | viability, T/C (second compound 3.16 µM, first compound 0.0316 µM): 96.9% | viability, T/C (second compound 3.16 µM, first compound 0.1 µM): 102% | viability, T/C (second compound 3.16 µM, first compound 0.316 µM): 89.6% | viability, T/C (second compound 3.16 µM, first compound 1 µM): 109% | viability, T/C (second compound 3.16 µM, first compound 3.16 µM): 102% | viability, T/C (second compound 3.16 µM, first compound 10 µM): 110% | viability, T/C (second compound 10 µM, first compound 0.0316 µM): 98.9% | viability, T/C (second compound 10 µM, first compound 0.1 µM): 101% | viability, T/C (second compound 10 µM, first compound 0.316 µM): 83.1% | viability, T/C (second compound 10 µM, first compound 1 µM): 104% | viability, T/C (second compound 10 µM, first compound 3.16 µM): 98.8% | viability, T/C (second compound 10 µM, first compound 10 µM): 97.2%

Cn1cnc2c(F)c(Nc3ccc(Br)cc3Cl)c(C(=O)NOCCO)cc21 + CC(Nc1ncnc2nc[nH]c12)c1cc2cccc(Cl)c2c(=O)n1-c1ccccc1
IC50 (second compound 0.0316 µM): 207 nM | IC50 (second compound 0.1 µM): 166 nM | IC50 (second compound 0.316 µM): 225 nM | IC50 (second compound 1 µM): 218 nM | IC50 (second compound 3.16 µM): 161 nM | IC50 (second compound 10 µM): 114 nM | viability, T/C (second compound 0.0316 µM, first compound 0.00949 µM): 102% | viability, T/C (second compound 0.0316 µM, first compound 0.03 µM): 77.2% | viability, T/C (second compound 0.0316 µM, first compound 0.0949 µM): 67.1% | viability, T/C (second compound 0.0316 µM, first compound 0.3 µM): 39.3% | viability, T/C (second compound 0.0316 µM, first compound 0.949 µM): 33.5% | viability, T/C (second compound 0.0316 µM, first compound 3 µM): 21.2% | viability, T/C (second compound 0.1 µM, first compound 0.00949 µM): 94.4% | viability, T/C (second compound 0.1 µM, first compound 0.03 µM): 77% | viability, T/C (second compound 0.1 µM, first compound 0.0949 µM): 54.9% | viability, T/C (second compound 0.1 µM, first compound 0.3 µM): 42.8% | viability, T/C (second compound 0.1 µM, first compound 0.949 µM): 33.5% | viability, T/C (second compound 0.1 µM, first compound 3 µM): 23.9% | viability, T/C (second compound 0.316 µM, first compound 0.00949 µM): 108% | viability, T/C (second compound 0.316 µM, first compound 0.03 µM): 79.7% | viability, T/C (second compound 0.316 µM, first compound 0.0949 µM): 62.8% | viability, T/C (second compound 0.316 µM, first compound 0.3 µM): 45.1% | viability, T/C (second compound 0.316 µM, first compound 0.949 µM): 36.4% | viability, T/C (second compound 0.316 µM, first compound 3 µM): 21.2% | viability, T/C (second compound 1 µM, first compound 0.00949 µM): 85.5% | viability, T/C (second compound 1 µM, first compound 0.03 µM): 69% | viability, T/C (second compound 1 µM, first compound 0.0949 µM): 63.6% | viability, T/C (second compound 1 µM, first compound 0.3 µM): 43.9% | viability, T/C (second compound 1 µM, first compound 0.949 µM): 33.6% | viability, T/C (second compound 1 µM, first compound 3 µM): 19.2% | viability, T/C (second compound 3.16 µM, first compound 0.00949 µM): 83.5% | viability, T/C (second compound 3.16 µM, first compound 0.03 µM): 73.7% | viability, T/C (second compound 3.16 µM, first compound 0.0949 µM): 58.9% | viability, T/C (second compound 3.16 µM, first compound 0.3 µM): 37.7% | viability, T/C (second compound 3.16 µM, first compound 0.949 µM): 31.1% | viability, T/C (second compound 3.16 µM, first compound 3 µM): 18.2% | viability, T/C (second compound 10 µM, first compound 0.00949 µM): 94.1% | viability, T/C (second compound 10 µM, first compound 0.03 µM): 68.3% | viability, T/C (second compound 10 µM, first compound 0.0949 µM): 53.9% | viability, T/C (second compound 10 µM, first compound 0.3 µM): 36.2% | viability, T/C (second compound 10 µM, first compound 0.949 µM): 27% | viability, T/C (second compound 10 µM, first compound 3 µM): 13.9%
